Data published in the kinase profiling compilation of Christmann-Franck et al. (2016).

Columns and labels:
Experiment in all cases: radiometric filter-binding kinase assay, Kinase HotSpot
Conditions in all cases: compound 0.5 µM; ATP 10 µM
PRKG2 (human) = PRKG2 (human) (UniProt Q13237)
MST1R (human) = MST1R (human) (UniProt Q04912)
SRPK1 (human) = SRPK1 (human) (UniProt Q96SB4)
PRKCB1 (human) = PRKCB1 (human) (UniProt P05771)
FLT3 (human) = FLT3 (human) (UniProt P36888)
NEK7 (human) = NEK7 (human) (UniProt Q8TDX7)
Sequence of NEK7 (human) (Q8TDX7 whole entry, looked up): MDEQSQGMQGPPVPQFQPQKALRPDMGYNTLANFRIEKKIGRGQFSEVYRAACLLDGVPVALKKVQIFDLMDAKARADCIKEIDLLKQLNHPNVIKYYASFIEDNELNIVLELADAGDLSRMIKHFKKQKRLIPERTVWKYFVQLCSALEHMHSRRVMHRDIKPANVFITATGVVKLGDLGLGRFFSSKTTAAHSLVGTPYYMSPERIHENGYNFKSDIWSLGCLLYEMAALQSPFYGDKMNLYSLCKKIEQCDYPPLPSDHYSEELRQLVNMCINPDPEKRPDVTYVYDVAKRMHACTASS

CSNK1G3 (human) = CSNK1G3 (human) (UniProt Q9Y6M4)
MAPKAPK3 (human) = MAPKAPK3 (human) (UniProt Q16644)
NEK6 (human) = NEK6 (human) (UniProt Q9HC98)
CHEK2 (human) = CHEK2 (human) (UniProt O96017)
PRKD3 (human) = PRKD3 (human) (UniProt O94806)
TSSK1B (human) = TSSK1B (human) (UniProt Q9BXA7)
ABL1 (human) = ABL1 (human) (UniProt P00519)
PHKG2 (human) = PHKG2 (human) (UniProt P15735)
CAMK4 (human) = CAMK4 (human) (UniProt Q16566)
EPHA3 (human) = EPHA3 (human) (UniProt P29320)
Sequence of EPHA3 (human) (P29320 whole entry, looked up): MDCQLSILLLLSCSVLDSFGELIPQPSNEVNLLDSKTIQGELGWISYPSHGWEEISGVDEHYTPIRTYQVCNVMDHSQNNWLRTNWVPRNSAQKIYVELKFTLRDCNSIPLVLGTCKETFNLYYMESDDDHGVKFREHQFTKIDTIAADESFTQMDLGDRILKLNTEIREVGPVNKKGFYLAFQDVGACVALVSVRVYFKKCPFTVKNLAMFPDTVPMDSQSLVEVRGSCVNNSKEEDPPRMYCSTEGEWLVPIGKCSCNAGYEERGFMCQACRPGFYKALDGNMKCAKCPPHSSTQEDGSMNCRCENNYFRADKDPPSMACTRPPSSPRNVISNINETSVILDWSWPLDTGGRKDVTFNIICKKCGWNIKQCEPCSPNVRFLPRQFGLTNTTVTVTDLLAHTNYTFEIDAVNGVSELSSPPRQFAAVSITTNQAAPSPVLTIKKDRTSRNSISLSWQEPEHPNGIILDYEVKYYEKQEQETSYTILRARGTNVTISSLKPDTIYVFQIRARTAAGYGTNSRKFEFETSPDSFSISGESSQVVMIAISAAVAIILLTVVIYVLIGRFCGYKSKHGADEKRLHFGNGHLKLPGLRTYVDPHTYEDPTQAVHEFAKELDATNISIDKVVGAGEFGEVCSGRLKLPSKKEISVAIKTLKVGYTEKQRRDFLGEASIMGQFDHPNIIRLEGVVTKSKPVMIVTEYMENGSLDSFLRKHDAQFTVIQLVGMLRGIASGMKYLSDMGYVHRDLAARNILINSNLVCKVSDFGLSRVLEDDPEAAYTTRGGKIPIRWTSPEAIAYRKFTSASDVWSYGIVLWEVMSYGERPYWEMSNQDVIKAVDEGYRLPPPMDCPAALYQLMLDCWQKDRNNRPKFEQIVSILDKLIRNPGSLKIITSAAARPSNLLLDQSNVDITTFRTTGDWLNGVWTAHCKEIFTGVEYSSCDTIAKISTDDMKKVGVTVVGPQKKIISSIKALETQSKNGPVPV

EPHA1 (human) = EPHA1 (human) (UniProt P21709)
SRPK2 (human) = SRPK2 (human) (UniProt P78362)
Sequence of SRPK2 (human) (P78362 whole entry, looked up): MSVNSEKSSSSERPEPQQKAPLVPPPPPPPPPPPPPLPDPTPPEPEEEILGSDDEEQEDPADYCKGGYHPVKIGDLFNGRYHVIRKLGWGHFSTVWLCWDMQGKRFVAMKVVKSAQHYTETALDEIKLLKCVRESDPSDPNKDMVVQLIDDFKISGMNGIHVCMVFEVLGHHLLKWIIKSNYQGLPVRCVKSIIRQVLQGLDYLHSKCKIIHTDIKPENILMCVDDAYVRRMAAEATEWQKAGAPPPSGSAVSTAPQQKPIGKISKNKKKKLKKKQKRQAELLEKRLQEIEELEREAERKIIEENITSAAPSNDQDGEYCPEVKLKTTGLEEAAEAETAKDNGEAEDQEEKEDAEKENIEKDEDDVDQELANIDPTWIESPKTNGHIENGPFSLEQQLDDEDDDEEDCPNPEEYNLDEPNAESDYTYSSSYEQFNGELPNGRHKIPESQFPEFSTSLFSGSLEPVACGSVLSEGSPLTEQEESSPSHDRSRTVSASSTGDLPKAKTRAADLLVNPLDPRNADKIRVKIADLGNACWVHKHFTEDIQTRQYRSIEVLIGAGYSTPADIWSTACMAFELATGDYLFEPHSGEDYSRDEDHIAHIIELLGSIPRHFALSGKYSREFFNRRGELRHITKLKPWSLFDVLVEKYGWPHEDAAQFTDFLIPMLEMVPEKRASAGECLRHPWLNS

PRKCH (human) = PRKCH (human) (UniProt P24723)
MARK4 (human) = MARK4 (human) (UniProt Q96L34)
GSK3A (human) = GSK3A (human) (UniProt P49840)
FRK (human) = FRK (human) (UniProt P42685)
CAMKK1 (human) = CAMKK1 (human) (UniProt Q8N5S9)
Sequence of CAMKK1 (human) (Q8N5S9 whole entry, looked up): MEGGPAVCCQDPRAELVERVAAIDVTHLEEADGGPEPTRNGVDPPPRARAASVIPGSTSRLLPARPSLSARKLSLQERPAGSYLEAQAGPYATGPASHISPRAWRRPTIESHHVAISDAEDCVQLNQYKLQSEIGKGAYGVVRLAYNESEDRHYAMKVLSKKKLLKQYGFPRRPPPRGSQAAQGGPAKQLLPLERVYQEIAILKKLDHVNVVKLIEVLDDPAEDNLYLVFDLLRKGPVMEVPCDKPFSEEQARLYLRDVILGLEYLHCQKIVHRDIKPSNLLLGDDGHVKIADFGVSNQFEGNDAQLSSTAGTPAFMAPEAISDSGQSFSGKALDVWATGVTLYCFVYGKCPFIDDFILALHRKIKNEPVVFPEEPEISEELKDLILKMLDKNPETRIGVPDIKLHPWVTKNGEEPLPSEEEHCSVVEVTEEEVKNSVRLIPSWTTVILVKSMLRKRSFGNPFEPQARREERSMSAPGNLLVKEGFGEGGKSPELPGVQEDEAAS

[1] = test system: SGK1 (human), O00141 [S422D]
PBK (human) = PBK (human) (UniProt Q96KB5)
Sequence of PBK (human) (Q96KB5 whole entry, looked up): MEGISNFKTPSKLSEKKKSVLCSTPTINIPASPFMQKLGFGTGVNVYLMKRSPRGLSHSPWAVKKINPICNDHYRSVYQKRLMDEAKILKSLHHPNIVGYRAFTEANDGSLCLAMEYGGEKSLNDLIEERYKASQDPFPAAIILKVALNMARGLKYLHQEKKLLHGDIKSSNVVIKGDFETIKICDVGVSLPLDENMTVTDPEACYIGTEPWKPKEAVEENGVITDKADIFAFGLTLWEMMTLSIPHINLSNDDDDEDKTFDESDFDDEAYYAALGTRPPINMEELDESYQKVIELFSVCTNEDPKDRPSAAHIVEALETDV

GRK5 (human) = GRK5 (human) (UniProt P34947)
Sequence of GRK5 (human) (P34947 whole entry, looked up): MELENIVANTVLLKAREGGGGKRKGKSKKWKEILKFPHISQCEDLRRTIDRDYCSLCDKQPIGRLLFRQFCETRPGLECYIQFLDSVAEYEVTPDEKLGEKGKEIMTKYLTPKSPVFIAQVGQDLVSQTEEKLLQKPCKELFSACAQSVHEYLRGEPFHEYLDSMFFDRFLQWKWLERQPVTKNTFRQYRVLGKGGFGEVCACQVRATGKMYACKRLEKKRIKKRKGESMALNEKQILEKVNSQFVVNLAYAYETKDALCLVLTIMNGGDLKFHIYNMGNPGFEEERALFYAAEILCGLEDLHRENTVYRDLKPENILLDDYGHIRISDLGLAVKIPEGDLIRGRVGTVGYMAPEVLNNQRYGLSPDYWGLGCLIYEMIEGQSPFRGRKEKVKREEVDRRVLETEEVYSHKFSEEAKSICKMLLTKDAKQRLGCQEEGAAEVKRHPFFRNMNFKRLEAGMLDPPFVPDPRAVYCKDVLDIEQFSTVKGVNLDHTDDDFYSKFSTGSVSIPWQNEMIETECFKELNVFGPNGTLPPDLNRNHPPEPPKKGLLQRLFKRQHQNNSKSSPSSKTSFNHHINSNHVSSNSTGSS

CDK1 CCNA2 (human) = CDK1 CCNA2 (human) (UniProt P06493+P20248)
FGFR3 (human) = FGFR3 (human) (UniProt P22607)
DYRK1A (human) = DYRK1A (human) (UniProt Q13627)
PRKCG (human) = PRKCG (human) (UniProt P05129)
DAPK3 (human) = DAPK3 (human) (UniProt O43293)
Sequence of DAPK3 (human) (O43293 whole entry, looked up): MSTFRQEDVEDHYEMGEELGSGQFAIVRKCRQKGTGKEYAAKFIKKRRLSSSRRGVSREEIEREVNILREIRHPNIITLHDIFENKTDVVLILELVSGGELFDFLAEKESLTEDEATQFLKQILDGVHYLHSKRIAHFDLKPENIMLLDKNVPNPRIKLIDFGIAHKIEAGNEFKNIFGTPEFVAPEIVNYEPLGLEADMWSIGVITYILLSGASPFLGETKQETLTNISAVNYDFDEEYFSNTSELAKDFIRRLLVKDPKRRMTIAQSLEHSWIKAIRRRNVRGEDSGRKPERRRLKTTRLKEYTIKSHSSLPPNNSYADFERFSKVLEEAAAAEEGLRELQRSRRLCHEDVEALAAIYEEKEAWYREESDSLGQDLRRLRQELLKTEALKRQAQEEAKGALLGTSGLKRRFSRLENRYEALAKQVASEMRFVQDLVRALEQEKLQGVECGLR

ROCK1 (human) = ROCK1 (human) (UniProt Q13464)
CDK5 CDK5R1 p25 (human) = CDK5 CDK5R1 p25 (human) (UniProt Q00535+Q15078)
Sequence of CDK5 CDK5R1 p25 (human) (Q00535 whole entry, looked up): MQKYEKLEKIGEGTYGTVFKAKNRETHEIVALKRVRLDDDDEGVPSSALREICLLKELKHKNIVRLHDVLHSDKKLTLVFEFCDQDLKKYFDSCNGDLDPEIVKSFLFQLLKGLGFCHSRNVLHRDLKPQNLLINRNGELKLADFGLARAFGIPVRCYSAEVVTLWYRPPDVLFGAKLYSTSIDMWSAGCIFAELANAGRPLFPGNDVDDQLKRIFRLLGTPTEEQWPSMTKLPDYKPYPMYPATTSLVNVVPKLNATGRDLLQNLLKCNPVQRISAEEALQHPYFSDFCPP
Sequence of CDK5 CDK5R1 p25 (human) (Q15078 whole entry, looked up): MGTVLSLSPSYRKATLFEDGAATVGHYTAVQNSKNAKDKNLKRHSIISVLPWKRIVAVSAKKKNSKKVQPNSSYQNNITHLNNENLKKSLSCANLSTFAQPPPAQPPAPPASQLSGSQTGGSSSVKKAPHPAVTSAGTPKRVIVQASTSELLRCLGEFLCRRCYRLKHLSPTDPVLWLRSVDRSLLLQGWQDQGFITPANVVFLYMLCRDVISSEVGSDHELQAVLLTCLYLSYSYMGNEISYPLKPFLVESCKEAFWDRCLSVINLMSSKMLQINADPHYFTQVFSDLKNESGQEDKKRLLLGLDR

MELK (human) = MELK (human) (UniProt Q14680)
MAPKAPK5 (human) = MAPKAPK5 (human) (UniProt Q8IW41)
GRK4 (human) = GRK4 (human) (UniProt P32298)
IKBKE (human) = IKBKE (human) (UniProt Q14164)
FLT1 (human) = FLT1 (human) (UniProt P17948)
MAP2K2 (human) = MAP2K2 (human) (UniProt P36507)
PAK2 (human) = PAK2 (human) (UniProt Q13177)
Sequence of PAK2 (human) (Q13177 whole entry, looked up): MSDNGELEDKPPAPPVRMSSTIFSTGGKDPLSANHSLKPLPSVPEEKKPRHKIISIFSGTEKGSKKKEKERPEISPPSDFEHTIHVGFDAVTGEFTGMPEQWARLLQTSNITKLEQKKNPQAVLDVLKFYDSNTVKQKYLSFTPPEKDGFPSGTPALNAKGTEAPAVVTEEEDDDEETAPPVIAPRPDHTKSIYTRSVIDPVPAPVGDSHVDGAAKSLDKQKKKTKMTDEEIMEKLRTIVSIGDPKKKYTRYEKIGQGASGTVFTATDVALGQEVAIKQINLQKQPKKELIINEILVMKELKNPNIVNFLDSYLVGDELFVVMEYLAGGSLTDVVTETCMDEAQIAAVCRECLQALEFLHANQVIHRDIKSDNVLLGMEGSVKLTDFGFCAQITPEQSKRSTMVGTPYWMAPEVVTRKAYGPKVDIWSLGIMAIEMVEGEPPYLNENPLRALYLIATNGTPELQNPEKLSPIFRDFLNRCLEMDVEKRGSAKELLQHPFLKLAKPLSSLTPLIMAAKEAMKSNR

AURKA (human) = AURKA (human) (UniProt O14965)
HIPK2 (human) = HIPK2 (human) (UniProt Q9H2X6)

O=c1c(-c2ccc(F)cc2)c(-c2ccncc2)[nH]n1-c1ccc(Cl)cc1 gave a residual activity (PRKG2 (human)) of 110%, a residual activity (MST1R (human)) of 95% and a residual activity (SRPK1 (human)) of 97.9%. For the same compound, the residual activity (PRKCB1 (human)) was 84.7%, the residual activity (FLT3 (human)) was 92.8% and the residual activity (NEK7 (human)) was 90.1%. It also gave a residual activity (CSNK1G3 (human)) of 102%, a residual activity (MAPKAPK3 (human)) of 101% and a residual activity (NEK6 (human)) of 106%. For the same compound, the residual activity (CHEK2 (human)) was 91.4%, the residual activity (PRKD3 (human)) was 74.5% and the residual activity (TSSK1B (human)) was 76.2%. The residual activity (ABL1 (human)) was 98.1%, the residual activity (PHKG2 (human)) was 121% and the residual activity (CAMK4 (human)) was 104%. It also gave a residual activity (EPHA3 (human)) of 84.4%, a residual activity (EPHA1 (human)) of 93.1% and a residual activity (SRPK2 (human)) of 94.4%. For the same compound, the residual activity (PRKCH (human)) was 89%, the residual activity (MARK4 (human)) was 80% and the residual activity (GSK3A (human)) was 93.3%. For the same compound, the residual activity (FRK (human)) was 78.5%, the residual activity (CAMKK1 (human)) was 98.5% and the residual activity [1] was 97.3%. It also gave a residual activity (PBK (human)) of 87.7%, a residual activity (GRK5 (human)) of 90.3% and a residual activity (CDK1 CCNA2 (human)) of 83.1%. For the same compound, the residual activity (FGFR3 (human)) was 88.1%, the residual activity (DYRK1A (human)) was 89.8% and the residual activity (PRKCG (human)) was 101%. It also gave a residual activity (DAPK3 (human)) of 94.7%, a residual activity (ROCK1 (human)) of 109% and a residual activity (CDK5 CDK5R1 p25 (human)) of 76.3%. For the same compound, the residual activity (MELK (human)) was 86.5%, the residual activity (MAPKAPK5 (human)) was 99.7% and the residual activity (GRK4 (human)) was 97.9%. It also gave a residual activity (IKBKE (human)) of 98.3%, a residual activity (FLT1 (human)) of 81.3% and a residual activity (MAP2K2 (human)) of 82.5%. The residual activity (PAK2 (human)) was 102%, the residual activity (AURKA (human)) was 94% and the residual activity (HIPK2 (human)) was 89%.

Work on COc1cc2ncnc(Nc3ccc(O)c(Br)c3)c2cc1OC yielded a residual activity (PRKG2 (human)) of 84.1%, a residual activity (MST1R (human)) of 101% and a residual activity (SRPK1 (human)) of 91.8%. The residual activity (PRKCB1 (human)) was 96.6%, the residual activity (FLT3 (human)) was 6.34% and the residual activity (NEK7 (human)) was 101%. It also gave a residual activity (CSNK1G3 (human)) of 101%, a residual activity (MAPKAPK3 (human)) of 96.2% and a residual activity (NEK6 (human)) of 100%. It also gave a residual activity (CHEK2 (human)) of 51%, a residual activity (PRKD3 (human)) of 72.8% and a residual activity (TSSK1B (human)) of 84.7%. The residual activity (ABL1 (human)) was 79.4%, the residual activity (PHKG2 (human)) was 98% and the residual activity (CAMK4 (human)) was 95.6%. It also gave a residual activity (EPHA3 (human)) of 95.4%, a residual activity (EPHA1 (human)) of 80.4% and a residual activity (SRPK2 (human)) of 63%. The residual activity (PRKCH (human)) was 86.3%, the residual activity (MARK4 (human)) was 92.4% and the residual activity (GSK3A (human)) was 131%. It also gave a residual activity (FRK (human)) of 74.7%, a residual activity (CAMKK1 (human)) of 95.8% and a residual activity [1] of 95.7%. The residual activity (PBK (human)) was 101%, the residual activity (GRK5 (human)) was 101% and the residual activity (CDK1 CCNA2 (human)) was 101%. The residual activity (FGFR3 (human)) was 98.8%, the residual activity (DYRK1A (human)) was 97.8% and the residual activity (PRKCG (human)) was 94.1%. It also gave a residual activity (DAPK3 (human)) of 99.1%, a residual activity (ROCK1 (human)) of 96.1% and a residual activity (CDK5 CDK5R1 p25 (human)) of 98.4%. For the same compound, the residual activity (MELK (human)) was 83.4%, the residual activity (MAPKAPK5 (human)) was 98.7% and the residual activity (GRK4 (human)) was 105%. For the same compound, the residual activity (IKBKE (human)) was 94.6%, the residual activity (FLT1 (human)) was 83.4% and the residual activity (MAP2K2 (human)) was 86.2%. For the same compound, the residual activity (PAK2 (human)) was 90.6%, the residual activity (AURKA (human)) was 83.1% and the residual activity (HIPK2 (human)) was 102%.

With Nc1ncnc2c1cnn2-c1ccccc1 the residual activity (PRKG2 (human)) was 99.2%, the residual activity (MST1R (human)) was 100% and the residual activity (SRPK1 (human)) was 98.1%. For the same compound, the residual activity (PRKCB1 (human)) was 95.2%, the residual activity (FLT3 (human)) was 88.9% and the residual activity (NEK7 (human)) was 106%. The residual activity (CSNK1G3 (human)) was 93.4%, the residual activity (MAPKAPK3 (human)) was 96.6% and the residual activity (NEK6 (human)) was 114%. The residual activity (CHEK2 (human)) was 95.5%, the residual activity (PRKD3 (human)) was 87.3% and the residual activity (TSSK1B (human)) was 84.1%. The residual activity (ABL1 (human)) was 99.4%, the residual activity (PHKG2 (human)) was 94.1% and the residual activity (CAMK4 (human)) was 104%. The residual activity (EPHA3 (human)) was 95%, the residual activity (EPHA1 (human)) was 92.4% and the residual activity (SRPK2 (human)) was 104%. The residual activity (PRKCH (human)) was 94.8%, the residual activity (MARK4 (human)) was 89.7% and the residual activity (GSK3A (human)) was 90.3%. It also gave a residual activity (FRK (human)) of 101%, a residual activity (CAMKK1 (human)) of 84.8% and a residual activity [1] of 90.9%. It also gave a residual activity (PBK (human)) of 92.4%, a residual activity (GRK5 (human)) of 104% and a residual activity (FGFR3 (human)) of 97.9%. The residual activity (DYRK1A (human)) was 96.8%, the residual activity (PRKCG (human)) was 103% and the residual activity (DAPK3 (human)) was 103%. For the same compound, the residual activity (ROCK1 (human)) was 93.8%, the residual activity (CDK5 CDK5R1 p25 (human)) was 102% and the residual activity (MELK (human)) was 92.6%. For the same compound, the residual activity (MAPKAPK5 (human)) was 87.1%, the residual activity (GRK4 (human)) was 106% and the residual activity (IKBKE (human)) was 100%. It also gave a residual activity (FLT1 (human)) of 88.5%, a residual activity (MAP2K2 (human)) of 96.9% and a residual activity (PAK2 (human)) of 98.1%. The residual activity (AURKA (human)) was 91.9% and the residual activity (HIPK2 (human)) was 103%.
